Publication PMC9953660, “Using ΔK280 TauRD Folding Reporter Cells to Screen TRKB Agonists as Alzheimer’s Disease Treatment Strategy” (Biomolecules, 2023)
Like-named read-outs stand apart in the source and are kept apart here.

Legend:
MTT cell viability assay = type: cell-based; settings: human
Experimental: Human neuroblastoma SH-SY5Y cells with inducible ΔK280 TauRD-DsRed expression were maintained in DMEM/F-12 supplemented with fetal bovine serum (FBS, 10%) (Thermo Scientific, Waltham, MA, USA), penicillin/streptomycin (100 U/mL), selection antibiotics hygromycin (100 μg/mL) and blasticidin (5 μg/mL) (InvivoGen, San Diego, CA, USA), and 1.5 g/l sodium bicarbonate. Cells were cultured at 37 °C in a 5% CO2 atmosphere. The cell viability of ZN and VB compounds (concentration range: 0.1–100 μM) was evaluated by a 3-(4,5-dimethylthiazol-2-yl)-2,5-diphenyltetrazolium bromide (MTT; Sigma-Aldrich) colorimetric assay. The absorbance at 570 nm was recorded by a Multiskan™ GO Microplate Spectrophotometer (Thermo Scientific).

[1] = Cell number / cell survival in induced ΔK280 TauRD-DsRed SH-SY5Y cells (high-content); type: cell-based, human; settings: human; induced SH-SY5Y cells expressing ΔK280 TauRD-DsRed for 6 days, 2–10 μM tested; read-out: IC50 cytotoxicity based on cell number
Experimental: (§1) ΔK280 TauRD-DsRed SH-SY5Y cells were plated in the presence of 10 μM retinoid acid (RA; Sigma-Aldrich) to promote neuronal differentiation. The next day, cells were added with congo red or ZN/VB compounds (2–10 μM) for 8 h pretreatment, followed by inducing ΔK280 TauRD-DsRed expression with doxycycline (2 μg/mL). On day 8, cell nuclei were stained with Hoechst 33342 (0.1 μg/mL; Thermo Scientific), and cell images acquired using ImageXpress Micro Confocal High-Content Imaging System (Molecular Devices, San Jose, CA, USA) with DAPI (4′,6-diamidino-2-phenylindole, for nuclei) and TRITC (tetramethylrhodamine, for DsRed) fluorescence filter sets. To detect ROS changes, 10 μM compound-treated cells were stained with Hoechst 33342 and 2′,7′-dichlorodihydrofluorescein diacetate (H2DCFDA, 10 μM) fluorescein (Invitrogen, Carlsbad, CA, USA), and cell images captured using DAPI and FITC (fluorescein isothiocyanate, for DCF) filters. For assessing differential neurite outgrowth, 10 μM compound-treated cells were fixed (paraformaldehyde, 4%), permeabilized (Triton X-100, 0.3%), and stained with class III β-tubulin (TUBB3, 1:1000) primary antibody (#802001, BioLegend, San Diego, CA, USA), followed by donkey anti-rabbit Alexa Fluor® 555 secondary antibody (1:1000; #A-31572, Invitrogen) and DAPI (0.1 μg/mL; Sigma-Aldrich) stains. The nuclei and neurite images were acquired with DAPI and TRITC fluorescence filters, respectively. All analyses of images were performed using MetaXpress software (Molecular Device).

[2] = biological target: T1, TRKB extracellular domain (TRKB-ECD) (Homo sapiens, UniProt Q16620); design: method as in PMID 25143381; settings: read-out: KD (TRKB-ECD binding affinity), reported value; cited from earlier work
T1 construct: TRKB-ECD (marked in red, C^32-E^429, XP_016870240); His (C); made in house; host or cells: Pichia pastoris

[3] = biological target: T1, TRKB extracellular domain (TRKB-ECD); assay: Tryptophan fluorescence quenching assay; settings: Pichia pastoris-expressed TRKB-ECD, 0–1000 nM, excitation 295 nm, emission 330 nm, room temperature; read-out: KD (TRKB-ECD binding affinity)
Experimental: The interaction between the N-terminal extracellular domain of TRKB (TRKB-ECD) and 7,8-DHF (as positive control; [35]), ZN-015, VB-030 or VB-037 was evaluated with tryptophan fluorescence titration. TRKB-ECD-His protein was expressed in the Pichia expression system (Invitrogen) and purified as stated. Intrinsic tryptophan fluorescence spectra with titration of a different concentration of compounds (0–1000 nM) were recorded by fluorescence spectrophotometer F-7000 (Hitachi, Tokyo, Japan), with excitation wavelength 295 nm and emission wavelength in the range of 300–400 nm. The calculation of dissociation constant (KD) between the 7,8-DHF or ZN/VB compound and TRKB was described in a previous report.

[4] = system: ROS in ΔK280 TauRD-DsRed SH-SY5Y cells; assay: High-content assessment of cellular ROS (H2DCFDA); type: cell-based, human; settings: 10 μM; uninduced = 100%, induced untreated 123%; range over compounds
Experimental: as §1, with “For assessing differential neurite outgrowth, 10 μM compound-treated cells were fixed (paraformaldehyde, 4%), permeabilized (Triton X-100, 0.3%), and stained with class III β-tubulin (TUBB3, 1:1000) primary antibody (#802001, BioLegend, San Diego, CA, USA), followed by donkey anti-rabbit Alexa Fluor® 555 secondary antibody (1:1000; #A-31572, Invitrogen) and DAPI (0.1 μg/mL; Sigma-Aldrich) stains.” left out, “All analyses of images were performed using MetaXpress software (Molecular Device).” left out

[5] = DPPH free-radical scavenging assay; type: physicochemical; settings: 10–160 μM, compared to kaempferol
Experimental: Free-radical scavenging activity of kaempferol (positive control) and ZN/VB compounds (10–160 μM) was measured using a 1,1-diphenyl-2-picrylhydrazyl (DPPH; Sigma-Aldrich) photometric assay as stated. The absorbance at 517 nm was assessed by a Multiskan™ GO Microplate Spectrophotometer (Thermo Scientific). An oxygen radical absorbance capacity (ORAC) assay of kaempferol and ZN/VB compounds (4–100 μM) was conducted according to the manufacturer’s instructions (OxiSelect™; Cell Biolabs, San Diego, CA, USA). The decrease of fluorescence intensity was monitored by a FLx800 microplate fluorescence reader (BioTek Instruments, Winooski, VT, USA). The ORAC activity was quantified as a trolox-equivalent antioxidant capacity.

[6] = biological target: T2, E. coli-expressed ΔK280 TauRD protein (Homo sapiens, UniProt P10636, DEL597-597); assay: Thioflavin T fluorescence ΔK280 TauRD aggregation assay; type: biochemical; settings: TauRD protein 20 μM, 48 h at 37 °C; read-out: EC50 inhibiting ΔK280 TauRD aggregation
T2 construct: TauRD (Q^244-E^372 of Tau, NP_005901) aggregation; N-terminal Met (N); made in house; host or cells: E. coli
Experimental: The anti-aggregation activity of congo red (positive control) and ZN/VB compounds (5–20 μM) was assessed using E. coli-expressed ΔK280 TauRD protein [33] and thioflavin T (Sigma-Aldrich) fluorescence assay. The trend of ΔK280 TauRD amyloid aggregate formation depicted with enhanced and red-shifted fluorescence was recorded by a FLx800 microplate fluorescence reader (BioTek Instruments), where the procedure was previously reported in detail.

ΔK280 TauRD-DsRed = biological target: T3, ΔK280 TauRD-DsRed (Homo sapiens, UniProt P10636, DEL597-597); assay: High-content DsRed fluorescence assay of ΔK280 TauRD-DsRed folding reporter cells; type: cell-based; settings: 10 μM; untreated cells = 100%; 8 h pretreatment, 6 day Dox induction
T3 construct: TauRD (Q^244-E^372 of Tau, NP_005901) aggregation; expressed in transfected cells; host or cells: SH-SY5Y (Tet-On, doxycycline-inducible)
Experimental: as §1, with “For assessing differential neurite outgrowth, 10 μM compound-treated cells were fixed (paraformaldehyde, 4%), permeabilized (Triton X-100, 0.3%), and stained with class III β-tubulin (TUBB3, 1:1000) primary antibody (#802001, BioLegend, San Diego, CA, USA), followed by donkey anti-rabbit Alexa Fluor® 555 secondary antibody (1:1000; #A-31572, Invitrogen) and DAPI (0.1 μg/mL; Sigma-Aldrich) stains.” left out, “All analyses of images were performed using MetaXpress software (Molecular Device).” left out

[7] = system: SH-SY5Y cells expressing ΔK280 TauRD-DsRed; assay: Cell number / cell survival in induced ΔK280 TauRD-DsRed SH-SY5Y cells (high-content); type: cell-based, human; settings: induced ΔK280 TauRD-DsRed SH-SY5Y, 2–10 μM
Experimental: as §1

T1 sequence (Q16620 32-429): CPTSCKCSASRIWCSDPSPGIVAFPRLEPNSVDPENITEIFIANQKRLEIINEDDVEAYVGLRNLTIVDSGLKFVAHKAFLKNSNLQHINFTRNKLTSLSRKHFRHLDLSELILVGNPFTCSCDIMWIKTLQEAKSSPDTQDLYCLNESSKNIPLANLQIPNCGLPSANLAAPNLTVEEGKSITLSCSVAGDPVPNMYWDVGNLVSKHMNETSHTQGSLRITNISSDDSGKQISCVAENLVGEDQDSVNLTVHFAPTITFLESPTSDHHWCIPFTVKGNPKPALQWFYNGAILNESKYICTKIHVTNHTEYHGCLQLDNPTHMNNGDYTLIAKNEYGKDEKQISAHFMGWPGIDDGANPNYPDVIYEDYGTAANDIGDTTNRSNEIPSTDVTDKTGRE
T2 sequence (P10636 with tags, fused parts or gaps isoform P10636-8 DEL280-280): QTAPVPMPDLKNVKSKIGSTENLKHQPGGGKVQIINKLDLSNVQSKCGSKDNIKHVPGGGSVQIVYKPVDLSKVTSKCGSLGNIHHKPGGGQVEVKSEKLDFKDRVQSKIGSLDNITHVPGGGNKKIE
T3 sequence (P10636 with tags, fused parts or gaps isoform P10636-8 DEL280-280): as above

Compound	IC50 at 6 days [1]	IC50 at 24 h (MTT cell viability assay)	Kd [3]	EC50 [6]	other results
CCOC(=O)c1cc2c(O)cccc2oc1=O [ZN-014, ethyl 5-hydroxy-2-oxo-2H-chromene-3-carboxylate]	> 10 µM				IC50 at 24 h (MTT cell viability assay; uninduced ΔK280 TauRD-DsRed SH-SY5Y, 0.1–100 μM, 24 h, read-out: IC50 cytotoxicity (MTT)): > 100 µM
COc1cccc2oc(C(=O)c3ccccc3)cc12 [ZN-013, (4-methoxybenzofuran-2-yl)(phenyl)methanone]	27 µM	> 100 µM			
O=c1cc(-c2ccccc2)oc2c(O)c(O)ccc12 [7,8-DHF, 7,8-dihydroxy flavone, reference compound]			0.0134 ± 0.0084 µM		Kd [2]: 0.0121 ± 0.0016 µM
O=C(Nc1cccc(S(=O)(=O)NC2=NCCCCC2)c1)c1cc(-c2ccncc2)nc2ccccc12 [VB-041, 2-(pyridin-4-yl)-N-(3-(N-(3,4,5,6-tetrahydro-2H-azepin-7-yl)sulfamoyl)phenyl)quinoline-4-carboxamide]	> 10 µM	> 100 µM			
O=[N+]([O-])c1cccc2nc(/C=C/c3cc4ccccc4nc3N3CCOCC3)ccc12 [VB-037, (E)-4-(3-(2-(5-nitroquinolin-2-yl)vinyl)quinolin-2-yl)morpholine]	23 µM	> 100 µM	0.0043 ± 0.0052 µM	13.1 µM	ROS level (DCF fluorescence) [4]: no effect on reducing ROS; DPPH free radical scavenging activity [5]: very weak DPPH free radical scavenging activity
Nc1c(/N=N/c2ccc(-c3ccc(/N=N/c4cc(S(=O)(=O)O)c5ccccc5c4N)cc3)cc2)cc(S(=O)(=O)O)c2ccccc12 [congo red, Congo red, reference compound]	> 10 µM			13.9 µM	DsRed fluorescence (ΔK280 TauRD-DsRed): 114%
Cc1ccc(-c2cc(-c3ccncc3)nc3ccccc23)cc1 [VB-030, 2-(pyridin-4-yl)-4-(p-tolyl)quinoline]	> 10 µM	> 100 µM	0.011 ± 0.0024 µM	20.3 µM	
O=C(O)COc1cc(O)c2c(=O)cc(-c3ccccc3)oc2c1 [ZN-006, 2-((5-hydroxy-4-oxo-2-phenyl-4H-chromen-7-yl)oxy)acetic acid]	> 10 µM	> 100 µM			
Cc1ccc2[nH]c(=O)c(C(=O)/C=C/c3nc4ccccc4[nH]3)c(-c3ccccc3)c2c1 [VB-031, (E)-3-(3-(1H-benzo[d]imidazol-2-yl)acryloyl)-6-methyl-4-phenylquinolin-2(1H)-one]	< 2 µM	6 µM			percentage of cell survival [7]: less than 75%
